Assay: in vivo
Conditions: sheep, sc
Experimental: Sheep (approximately 100 kg) were housed at SUNY Stony Brook Health Sciences Center. Animals were anesthetized with acepromazine/thiopental sodium. A suspense of diketopiperazine microparticle/sCT (10.04 mg/mL in 0.9% saline) was instilled in each lung of each sheep. A solution of sCT (10 mg/mL in 0.9% saline) was administered by subcutaneous injection to control animals. An intravenous catheter was placed in the cephalic vein of each anesthetized animal for blood sampling.
The following dosing solutions were prepared on the day of the experiment. The volume of the dose delivered was calculated based on the actual weight of the animal as described below.
Blood samples were drawn at the following time points: −5, 0 (predose), 1, 3, 5, 10, 15, 30, 45, 60, 90 minutes, 2, 4, and 6 hours. […]
Plasma sCT concentration was determined using radioimmunoassay (Research and Diagnostic Antibodies, Berkeley, Calif., catalog #K-1235).
The pharmacokinetics of sCT in sheep was determined after lung instillation of a formulation of sCT in diketopiperazine microparticle (2.47% by weight sCT) at a sCT dose of 100 μg/kg. […]
The truncated AUC (0 to 6 hours) was calculated for each animal using the trapezoidal rule. The bioavailability (F %) for each animal was calculated from the ration of the AUCs for the pulmonary and subcutaneous administrations.

Tmax: 2 h
AUC(0-t) (100 ug/kg): 38.8 ng·h/mL
Compound: CC(C)C[C@H](NC(=O)[C@H](CCCCN)NC(=O)CNC(=O)[C@H](CC(C)C)NC(=O)[C@@H](NC(=O)[C@@H]1CSSC[C@H](N)C(=O)N[C@@H](CO)C(=O)N[C@@H](CC(N)=O)C(=O)N[C@@H](CC(C)C)C(=O)N[C@@H](CO)C(=O)N[C@@H]([C@@H](C)O)C(=O)N1)C(C)C)C(=O)N[C@@H](CO)C(=O)N[C@@H](CCC(N)=O)C(=O)N[C@@H](CCC(=O)O)C(=O)N[C@@H](CC(C)C)C(=O)N[C@@H](Cc1c[nH]cn1)C(=O)N[C@@H](CCCCN)C(=O)N[C@@H](CC(C)C)C(=O)N[C@@H](CCC(N)=O)C(=O)N[C@H](C(=O)N[C@@H](Cc1ccc(O)cc1)C(=O)N1CCC[C@H]1C(=O)N[C@@H](CCCNC(=N)N)C(=O)N[C@H](C(=O)N[C@@H](CC(N)=O)C(=O)N[C@H](C(=O)NCC(=O)N[C@@H](CO)C(=O)NCC(=O)N[C@H](C(=O)N1CCC[C@H]1C(N)=O)[C@@H](C)O)[C@@H](C)O)[C@@H](C)O)[C@@H](C)O [sCT, salmon calcitonin]

From patent US8394414B2, “Method for drug delivery to the pulmonary system” (MannKind Corporation, priority 1995, dated 2013)
